Here are results for eleven compounds from publication PMC8868400, “Structure–Activity Relationships and Transcriptomic Analysis of Hypoxia-Inducible Factor Prolyl Hydroxylase Inhibitors” (Antioxidants, 2022).

Values joined by “and” are separate entries in the source; they are usually repeats but may differ in a detail not shown here. Equal values may be shown once. “Also recorded” adds a separate entry of the source. Read-outs that look alike come from different tables or passages of the source.

The test system of series [1] is HIF1 ODD-luc reporter (intracellular HIF PHD), HIF1 ODD-luc/SH-SY5Y cell line. Briefly: HIF1 ODD-luc reporter assay. Format: cell-based, human. The settings on record: for Potency in HIF1 ODD-luc reporter assay (in words, comparative) / IC50: SH-SY5Y, 3 h incubation; for IC50: read-out: IC50 of HIF1 ODD-luc reporter activation; for Interference of free iron with reporter activation: cells loaded with ferrous sulfate 20 min before drug. The procedure: The reporter assay on the HIF1 ODD-luc/SH-SY5Y cell line was performed as described in [10]. Drugs were freshly prepared as 10 mM stock solutions in DMSO, and right before the experiment were diluted to 50×-fold to the final concentration in the well, so each well with 100 μL medium was inoculated with 2 μL of the drug solution. Cells were incubated for 3 h and then lysed and assayed for luciferase activity. To evaluate the effect of iron, the cells were loaded with the corresponding concentrations of ferrous sulfate in the medium for 20 min before the drug’s addition. All experiments were performed in triplicate. The fold activation with respect to the background luminescence in the presence 2 μL DMSO aliquot was plotted against drug concentrations. The results are shown as average ± SD.
The HIF1 ODD-luc reporter assay employs a cell line stably expressing a reporter vector providing the continuous production of an oxygen-dependent domain of HIF1α fused via its C-terminus to N-terminus of firefly luciferase. The steady-state level of the fusion protein depends on the ratio of the rates of its production (pcmv promoter) and degradation upon hydroxylation, binding to VHL and proteasomal degradation. […] Enzyme inhibition results in an immediate response in the form of luciferase fusion accumulation. The performance of the fusion reporter is equivalent to monitoring the actual fate of intracellular HIFs upon enzyme inhibition. […] However, both vadadustat and roxadustat worked in a very high micromolar range (IC50 above 30 μM). […] The use of high concentrations of the αKG mimetic drugs to overcome the competition from the intracellular αKG may result in targeting other αKG-dependent pathways that are unrelated to αKG-dependent dioxygenases, such as kynurenine-oxoglutarate transaminase and αKG dehydrogenase E1. In fact, DMOG is known to inhibit the αKG dehydrogenase complex and oxygen consumption by mitochondria. This plausible break in specificity could be a reason for concerns on the safety of HIF PHD inhibitor drugs in comparison with the use of recombinant EPO [17].

Another series has as its system SH-SY5Y cell line. Put plainly: Transcriptomic microarray analysis (Gene Chip Human Transcriptome Array 2.0). Format: cell-based. The settings on record: for Number of downregulated genes / Number of upregulated genes: 0.5 mM DMOG, 30 μM roxadustat, 2 μM oxyquinolines; for Downregulated genes in common with hypoxia / Upregulated genes in common with hypoxia: hypoxia 2 h + 5 h; for Suppression of ATF4 signaling pathway: heatmap. How it is done: Transcriptomic microanalysis was performed as described in [12]. The human neuroblastoma SH-SY5Y cell line was grown on DMEM/F12 (Paneco Ltd., Moscow, Russia) containing 10% FBS (Thermo Fisher Scientific Inc., Waltham, MA, USA), and the cells were plated in 6-well plates (TPP, Russia) at a cell/well density of 500,000 the day before the drug treatment. The drugs—2 μM oxyquinoline(s), 30 μM (roxadustat), and 0.5 mM DMOG—were added to the cells in triplicate, and the cells were incubated for 5 h. The control wells contained 4 μL DMSO. The hypoxic conditions were created by incubation in 1% O2, 5% CO2, and 94% N2 atmosphere for 2 h (the medium was incubated under the same conditions for 16 h before addition to the cells). After 2 h hypoxia, the cells were returned to the original incubation conditions in a CO2 incubator and kept for another 5 h. After incubation, the cells were lysed with the Qiazol reagent (Qiagen N.V., Venlo, The Netherlands). The RNA was isolated using the RNeasy Micro Kit (Qiagen); the qualitative and quantitative analysis of the RNA was performed as described earlier. The RNA integrity number (RIN) values for all the samples were above 9.5. All steps of the sample preparation, hybridization, washing, staining, and microchip scanning were performed as described before. The mRNA expression profile was analyzed using the Gene Chip Human Transcriptome Array 2.0 (Thermo Fisher Scientific Inc., Waltham, MA, USA). The CEL files obtained during microchip scanning were treated with the Transcriptome Analysis Console 2.0 application (Thermo Fisher Scientific-Affymetrix, Santa Clara, CA, USA). Unannotated probe sets were excluded from the analysis. The results obtained were statistically processed using the TAC 4.0 software (Thermo Fisher Scientific). The statistical reliability for the differences in the expression levels between the intact cells and cells treated with the studied compounds was evaluated using the monofactorial analysis of variance (ANOVA) with the Benjamini–Hochberg correction. The significance threshold was 0.05.

In series [2] the test system is SH-SY5Y cells. Put plainly: Oxygen-glucose deprivation (OGD) model, MTT viability. Format: cell-based, human. The settings on record: 24 h pretreatment. How it is done: (§1) For oxygen-glucose deprivation (OGD) studies, 40,000 SH-SY5Y cells were plated in each well of 96-well plates. After overnight incubation, cells were treated with 1 and 3 μM concentrations of drugs for 24 h prior to OGD, at the onset of OGD, and at the onset of reperfusion. The compounds’ toxicity at the 1, 5, and 8 μM concentrations was assessed at 48 h. Oxygen glucose deprivation was performed as follows. The medium was replaced with DMEM containing no glucose, and then the cells were transferred to a sealed hypoxic chamber with 5% CO2-95% N2 atmosphere for 2 h. After 2 h incubation, the cells were removed from the hypoxic chamber and resupplied with a regular growth media for reperfusion/recovery. After 24 h incubation, cell viability was quantified using an MTT (4,5-dimethylthiazol-2-yl)-2,5-diphenyltetrazolium bromide, Sigma) assay.
The oxygen deprivation model (OGD) was performed using the human neuroblastoma SH-SY5Y cell line. […] The branched oxyquinoline drugs were added either 24 h before the onset of OGD, at the onset of ischemia induced by OGD insult, or with the reperfusion media at the end of OGD, as described in Methods and shown in Figure 6a.

Details of series [3]: method as in PMID 20416509. The settings on record: estimated; read-out: KD of iron chelation; cited from earlier work.
The test system of series [4] is SH-SY5Y cells. Briefly: Compound toxicity at 48 h incubation without OGD. Format: cell-based, human. The following applies: 8 μM. The procedure:
as §1

Setting [5] is: 5 h treatment, 1.5-fold cut-off.
[6] abbreviates: 5 h treatment, 1.5-fold cut-off, listed as 570-0720.
Setting [7] is: 5 h treatment, 1.5-fold cut-off, listed as FG.

Consider `Cc1ccnc(NC(c2ccc(C(C)(C)C)cc2)c2cc(Cl)c3cccnc3c2O)c1` (stereo not shown) [5-chloro-neuradapt], for which the “Potency in HIF1 ODD-luc reporter assay (in words, comparative)” value (from here on “Potency in HIF1 ODD-luc reporter assay”) in series [1] was “almost as active as the original compound”.

Regarding `Cc1ccnc(NC(c2ccc(C(C)(C)C)cc2)c2ccc3cccnc3c2O)c1` (stereo not shown) [4896-3212], in series [1] (Homo sapiens, 3 h), the IC50 (usually the concentration that gives 50% inhibition) was 1000 nM. For the same compound, in series [1], the “Potency in HIF1 ODD-luc reporter assay” value was “submicromolar IC50 values”; the IC50 was less than 1000 nM; the “Interference of free iron with reporter activation” value is reported as “interference of free iron with the reporter activation”.

Regarding `Cc1ccnc(NC(c2ccc(C(C)C)cc2)c2ccc3cccnc3c2O)c1` (stereo not shown) [4896-3249], in the series on SH-SY5Y cell line (setting [5]), the “Downregulated genes in common with 570-0720” value is reported as 231 genes, the “Downregulated genes in common with DMOG” value is listed as 52 genes, the “Downregulated genes in common with FG (roxadustat)” value (“Downregulated genes … (roxadustat)” for short) is listed as 73 genes and the “Upregulated genes in common with 570-0720” value was 524 genes. Also, in the series on SH-SY5Y cell line (setting [5]), the “Upregulated genes in common with DMOG” value came out at 188 genes, the “Upregulated genes in common with FG (roxadustat)” value (shortened to “Upregulated genes … (roxadustat)”) was found to be 257 genes, the “Number of downregulated genes” value came to 386 genes and the “Number of upregulated genes” value came to 1092 genes. In addition, in the series with SH-SY5Y cell line (setting [5]), the “Downregulated genes in common with hypoxia” value is recorded as 31 genes and the “Upregulated genes in common with hypoxia” value turned out to be 152 genes. In the series with SH-SY5Y cell line (5 h treatment), the “Suppression of ATF4 signaling pathway” value was “inhibits several pro-death pathways with ATF4 being one of them; also recorded: enhanced suppression”. In the series on SH-SY5Y cells [2] (Homo sapiens, SH-SY5Y, 3 μM, insult alone 70%, MTT after 24 h recovery, read-out: Cell viability after OGD), the viability (commonly a read-out of living cells in per cent, often relative to untreated cells) at 3 µM was 90%. In addition, the IC50 in series [1] (Homo sapiens, 3 h) came out at 1000 nM. In addition, the “Potency in HIF1 ODD-luc reporter assay” value in series [1] was “equally active”.

On to `Cc1ccc2ccc(C(Nc3ccccn3)c3ccc(C(C)C)cc3)c(O)c2n1` (stereo not shown) [5704-0720], for which, in the series on SH-SY5Y cell line (2 μM, 5 h), the “Reduction in number of genes overlapped with roxadustat in comparison to isopropyl-neuradapt” value was roughly 20%. In the series on SH-SY5Y cell line (setting [5]), the “Downregulated genes in common with DMOG” value amounted to 38 genes, the “Downregulated genes … (roxadustat)” value is 60 genes, the “Upregulated genes in common with DMOG” value is listed as 126 genes and the “Upregulated genes … (roxadustat)” value is 195 genes. Further, in the series on SH-SY5Y cell line (setting [5]), the “Number of downregulated genes” value was 200–260 genes, the “Number of upregulated genes” value was 600–700 genes, the “Downregulated genes in common with hypoxia” value worked out at 17 genes and the “Upregulated genes in common with hypoxia” value came out at 86 genes. In the series on SH-SY5Y cell line (setting [6]), the “Number of downregulated genes” value is 259 genes and the “Number of upregulated genes” value is 600 genes. The “Suppression of ATF4 signaling pathway” value in the series on SH-SY5Y cell line (5 h treatment) was “no suppression; also recorded: inactive”. In addition, the concentration for half-maximal inhibition (IC50) in series [1] (Homo sapiens, 3 h) turned out to be 2000 nM. Further, the “Potency in HIF1 ODD-luc reporter assay” value in series [1] is listed as “ca. two-fold less potent”.

Regarding `COC(=O)CNC(=O)C(=O)OC` [DMOG, dimethyl oxalylglycine, reference compound], in the series with SH-SY5Y cell line (5 h treatment), the “Overlap of downregulated genes for the couple roxadustat and DMOG” value turned out to be 80%; the “Share of downregulated genes overlapping with hypoxia” value was roughly 50%; the “Share of upregulated genes overlapping with those induced by hypoxia” value was “More than 30%”; the “Suppression of ATF4 signaling pathway” value was “weaker”. Moreover, in the series with SH-SY5Y cell line (setting [5]), the “Downregulated genes … (roxadustat)” value was 160 genes; the “Upregulated genes … (roxadustat)” value is given as 476 genes; the “Number of downregulated genes” value is 200–260 genes and 204 genes; the “Number of upregulated genes” value is 600–700 genes and 608 genes. In the series on SH-SY5Y cell line (setting [5]), the “Downregulated genes in common with hypoxia” value came out at 104 genes and the “Upregulated genes in common with hypoxia” value is on record as 279 genes. Further, in series [1], the “Potency in HIF1 ODD-luc reporter assay” value was “millimolar potency” and the IC50 is 500000 nM.

`Oc1cccnc1NC(c1ccc(Cl)cc1)c1ccc2cccnc2c1O` (stereo not shown) [adaptaquin, reference compound]: the “Neuroprotection in OGD” value with SH-SY5Y cells [2] (1–3 μM) is 20–30%.

Regarding `Cc1cc(C2CCCCC2)n(O)c(=O)c1` [ciclopirox], in series [3], the Kd – broadly, the equilibrium constant for the complex coming apart – was 50 nM.

On to `Cc1ccc2ccc(C(Nc3ccccn3)c3ccc(C(C)C)cc3)c(O)c2n1` (stereo not shown) [compound 7], for which, in the series on SH-SY5Y cells [4], the “Toxicity at prolonged incubation” value was “least toxic”.

Turning to `Cc1ccnc(NC(c2ccc(C(C)(C)C)cc2)c2cc(Cl)c3cccnc3c2O)c1` (stereo not shown) [compound 8], the “Toxicity at prolonged incubation” value in the series on SH-SY5Y cells [4] was “least toxic”.

As for `Cc1nc(C(=O)NCC(=O)O)c(O)c2ccc(Oc3ccccc3)cc12` [roxadustat, reference compound], in the series on SH-SY5Y cell line (5 h treatment), the “Overlap of downregulated genes for the couple roxadustat and DMOG” value was 80%; the “Share of downregulated genes overlapping with hypoxia” value is roughly 50%; the “Share of upregulated genes overlapping with those induced by hypoxia” value is recorded as “More than 30%”; the “Suppression of ATF4 signaling pathway” value is “weaker”. Besides, in the series with SH-SY5Y cell line (setting [5]), the “Number of downregulated genes” value is 200–260 genes, the “Number of upregulated genes” value is given as 600–700 genes, the “Downregulated genes in common with hypoxia” value was 96 genes and the “Upregulated genes in common with hypoxia” value is reported as 261 genes. For the same compound, in the series with SH-SY5Y cell line (setting [7]), the “Number of downregulated genes” value is listed as 209 genes and the “Number of upregulated genes” value came to 714 genes. In addition, the IC50 in series [1] (Homo sapiens, 3 h) is greater than 30000 nM. Moreover, the half-maximal inhibitory concentration (IC50) in series [1] (listed as Roxadustat) is roughly 25000 nM. For the same compound, in series [1], the IC50 turned out to be 30000 nM and the “Interference of free iron with reporter activation” value is listed as “not observed”.

On to `O=C(O)CNC(=O)c1ncc(-c2cccc(Cl)c2)cc1O` [vadadustat, reference compound], for which the IC50 in series [1] (Homo sapiens, 3 h) was greater than 30000 nM.
